Assay results reported in PMC3755495 (Biochemical pharmacology, 2013).

Target: T1, MCAK (Kinesin-like protein KIF2C/MCAK) (Homo sapiens, UniProt Q99661)
T1 sequence (Q99661 2-725): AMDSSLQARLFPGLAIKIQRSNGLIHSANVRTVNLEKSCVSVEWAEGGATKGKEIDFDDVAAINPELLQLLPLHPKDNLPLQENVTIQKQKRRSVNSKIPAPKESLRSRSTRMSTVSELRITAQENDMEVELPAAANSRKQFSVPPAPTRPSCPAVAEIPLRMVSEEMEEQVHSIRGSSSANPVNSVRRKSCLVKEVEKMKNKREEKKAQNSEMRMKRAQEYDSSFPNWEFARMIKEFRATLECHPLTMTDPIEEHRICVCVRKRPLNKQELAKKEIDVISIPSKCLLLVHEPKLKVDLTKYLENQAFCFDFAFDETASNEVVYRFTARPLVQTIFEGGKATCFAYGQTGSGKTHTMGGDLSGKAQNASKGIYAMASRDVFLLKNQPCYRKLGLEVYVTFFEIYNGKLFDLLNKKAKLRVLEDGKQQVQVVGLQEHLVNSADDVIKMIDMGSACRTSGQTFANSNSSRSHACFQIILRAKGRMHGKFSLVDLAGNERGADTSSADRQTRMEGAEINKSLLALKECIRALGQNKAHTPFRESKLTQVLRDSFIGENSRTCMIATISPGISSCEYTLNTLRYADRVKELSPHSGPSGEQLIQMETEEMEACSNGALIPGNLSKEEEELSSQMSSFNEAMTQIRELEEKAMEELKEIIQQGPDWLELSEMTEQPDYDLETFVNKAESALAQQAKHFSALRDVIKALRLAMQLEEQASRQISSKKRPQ
Assay: displacement of MCAK from immobilized ligand […], Western blot
Type: biochemical
Settings: MgATP in NP-40 lysis buffer, 15 min

Compound: Nc1ncnc2c1ncn2[C@@H]1O[C@H](COP(=O)(O)OP(=O)(O)OP(=O)(O)O)[C@@H](O)[C@H]1O [ATP]
- displacement of MCAK from immobilized ligand 3, Western blot: MCAK binding to the immobilized drug could be inhibited by increasing concentrations of ATP
